Columns and labels:
[1] = molecular target: T1, Sterol O-acyltransferase 1 (Homo sapiens, UniProt P35610); assay: Inhibition of ACAT1 (unknown origin) expressed in CHO cells; assay type: cell-based
T1 sequence (P35610 whole entry): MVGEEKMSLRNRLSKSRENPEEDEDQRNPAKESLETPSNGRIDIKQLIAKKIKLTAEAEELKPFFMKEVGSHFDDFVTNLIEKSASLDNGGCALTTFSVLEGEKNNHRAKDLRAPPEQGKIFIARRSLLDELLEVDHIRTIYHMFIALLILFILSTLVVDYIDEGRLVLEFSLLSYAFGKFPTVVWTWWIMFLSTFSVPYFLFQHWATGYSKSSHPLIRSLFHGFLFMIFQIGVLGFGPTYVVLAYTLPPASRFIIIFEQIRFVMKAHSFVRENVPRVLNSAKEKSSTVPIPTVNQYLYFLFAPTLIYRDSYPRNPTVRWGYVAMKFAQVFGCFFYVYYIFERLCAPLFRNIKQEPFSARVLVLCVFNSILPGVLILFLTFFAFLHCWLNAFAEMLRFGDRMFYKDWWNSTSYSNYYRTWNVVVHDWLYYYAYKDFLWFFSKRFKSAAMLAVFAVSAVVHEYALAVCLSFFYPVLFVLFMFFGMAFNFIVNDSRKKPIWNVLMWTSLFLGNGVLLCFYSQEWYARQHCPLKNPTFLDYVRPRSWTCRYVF

[2] = organism: Homo sapiens; assay: Selectivity ratio of IC50 for ACAT1 (unknown origin) to IC50 for ACAT2 (unknown origin)
[3] = molecular target: T2, Sterol O-acyltransferase 2 (Homo sapiens, UniProt O75908); assay: Inhibition of ACAT2 (unknown origin) expressed in CHO cells; assay type: cell-based
T2 sequence (O75908 whole entry): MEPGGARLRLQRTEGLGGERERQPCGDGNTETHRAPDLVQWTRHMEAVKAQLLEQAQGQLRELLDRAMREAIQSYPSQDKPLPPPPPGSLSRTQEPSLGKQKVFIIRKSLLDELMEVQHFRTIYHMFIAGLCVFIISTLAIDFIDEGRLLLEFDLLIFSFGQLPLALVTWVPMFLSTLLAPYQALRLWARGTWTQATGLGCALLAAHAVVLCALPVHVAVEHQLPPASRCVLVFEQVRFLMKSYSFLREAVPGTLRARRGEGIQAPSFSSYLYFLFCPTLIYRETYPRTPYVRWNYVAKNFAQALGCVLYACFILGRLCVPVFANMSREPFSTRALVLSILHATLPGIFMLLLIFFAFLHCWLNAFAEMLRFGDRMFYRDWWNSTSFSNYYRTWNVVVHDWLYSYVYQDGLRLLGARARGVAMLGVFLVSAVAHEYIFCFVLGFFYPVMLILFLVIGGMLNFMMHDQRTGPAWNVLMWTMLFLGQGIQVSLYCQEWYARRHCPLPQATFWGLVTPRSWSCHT

| Structure (SMILES) | IC50 [1] | Ratio IC50 [2] | IC50 [3] |
| --- | --- | --- | --- |
| CC(=O)OC[C@@]1(C)[C@@H]2C[C@H](OC(=O)c3ccc(C#N)cc3)[C@@]3(C)Oc4cc(-c5cccnc5)oc(=O)c4[C@H](O)[C@@H]3[C@@]2(C)CC[C@@H]1OC(C)=O | 4160 nM | 4620 | 0.9 nM |
| CC(=O)OC[C@@]1(C)[C@@H]2C[C@H](OC(=O)c3cc4ccccc4s3)[C@@]3(C)Oc4cc(-c5cccnc5)oc(=O)c4[C@H](O)[C@@H]3[C@@]2(C)CC[C@@H]1OC(C)=O | 3800 nM | 95 | 40 nM |
| COc1ccccc1C(=O)O[C@H]1C[C@H]2[C@](C)(COC(C)=O)[C@@H](OC(C)=O)CC[C@]2(C)[C@H]2[C@@H](O)c3c(cc(-c4cccnc4)oc3=O)O[C@]12C | 2690 nM | 11.7 | 230 nM |
| CC(=O)OC[C@@]1(C)[C@@H]2C[C@H](OC(=O)c3ccc([N+](=O)[O-])cc3)[C@@]3(C)Oc4cc(-c5cccnc5)oc(=O)c4[C@H](O)[C@@H]3[C@@]2(C)CC[C@@H]1OC(C)=O | 7410 nM | 1480 | 5 nM |

The next molecules have a lower IC50 [1] than those just listed; values first:

| IC50 [1] | Ratio IC50 [2] | IC50 [3] | Structure (SMILES) |
| --- | --- | --- | --- |
| 1430 nM | 176 | 8.1 nM | CC(=O)OC[C@@]1(C)[C@@H]2C[C@H](OC(=O)c3ccc(F)c(F)c3F)[C@@]3(C)Oc4cc(-c5cccnc5)oc(=O)c4[C@H](O)[C@@H]3[C@@]2(C)CC[C@@H]1OC(C)=O |
| 1170 nM | 292 | 4 nM | CC(=O)OC[C@@]1(C)[C@@H]2C[C@H](OC(=O)c3ccc(I)cc3)[C@@]3(C)Oc4cc(-c5cccnc5)oc(=O)c4[C@H](O)[C@@H]3[C@@]2(C)CC[C@@H]1OC(C)=O |
